Our source for the Ki, IC50 and inhibition values is patent US8710233B2 (Gruenenthal GmbH, priority 2005, dated 2014).

What all share (type): cell-based
One experiment has as its target T1, vanilloid receptor (VR1) (Homo sapiens, UniProt Q8NER1).
T1 construct: expressed in transfected cells; host or cells: CHO K1 cells (ECACC), stably transfected
The experiment in a line: FLIPR Ca2+ influx assay on CHO K1 cells transfected with the VR1 gene (pharmacological method II). The note with it: table 4; capsaicin; read-out: Ki (human) Cap.

In experiment [1] the target is T2, vanilloid receptor 1 (VR1/TRPV1) of the rat species (Rattus norvegicus, UniProt O35433).
T2 construct: The spinal column is removed from decapitated rats; from tissue; host or cells: primary cells dissociated from rat dorsal root ganglia
T2 sequence (O35433 whole entry): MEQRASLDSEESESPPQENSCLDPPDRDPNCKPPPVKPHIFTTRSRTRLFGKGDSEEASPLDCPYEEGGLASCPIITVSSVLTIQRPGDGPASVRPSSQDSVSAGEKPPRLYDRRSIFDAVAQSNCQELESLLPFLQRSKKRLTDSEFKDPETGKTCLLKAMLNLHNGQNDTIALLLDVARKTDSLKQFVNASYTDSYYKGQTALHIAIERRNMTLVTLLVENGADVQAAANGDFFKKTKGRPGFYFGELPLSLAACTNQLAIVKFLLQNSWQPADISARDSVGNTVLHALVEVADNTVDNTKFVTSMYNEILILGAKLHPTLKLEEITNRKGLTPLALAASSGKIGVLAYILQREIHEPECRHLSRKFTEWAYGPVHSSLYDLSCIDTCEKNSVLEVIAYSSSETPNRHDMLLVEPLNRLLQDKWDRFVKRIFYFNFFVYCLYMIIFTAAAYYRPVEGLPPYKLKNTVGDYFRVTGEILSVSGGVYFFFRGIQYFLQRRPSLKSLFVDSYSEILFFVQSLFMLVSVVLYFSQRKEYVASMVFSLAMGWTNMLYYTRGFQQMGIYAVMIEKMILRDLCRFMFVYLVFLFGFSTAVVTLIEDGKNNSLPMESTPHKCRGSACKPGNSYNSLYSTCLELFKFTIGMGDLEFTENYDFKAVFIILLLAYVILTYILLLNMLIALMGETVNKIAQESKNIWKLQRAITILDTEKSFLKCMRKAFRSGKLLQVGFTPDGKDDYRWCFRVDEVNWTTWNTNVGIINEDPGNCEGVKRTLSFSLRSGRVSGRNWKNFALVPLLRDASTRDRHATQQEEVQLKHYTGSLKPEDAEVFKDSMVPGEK
The experiment in a line: FLIPR Ca2+ influx assay on rat dorsal root ganglia cells (pharmacological method I). The conditions noted are these: table 4, capsaicin. Put shortly:
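Primary rat dorsal root ganglion cells loaded with 2 μM Fluo-4, Ca2+ influx read on FLIPR as peak fluorescence. Triplicates, at least 3 independent experiments.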

Another experiment has as its target VR1/TRPV1 receptor (Homo sapiens, UniProt Q8NER1). The experiment in a line: IC50 (human) after pH stimulus. The note with it: for IC50: table 4; for inhibition at 1 µM: ne = no effect.
The mark [2] stands for this setting: read-out: inhibition in percent, IC50 (human) after pH stimulus.

The structures appear in SMILES notation. Like-named read-outs stand apart in the source and are kept apart here.

T1 sequence (Q8NER1 whole entry): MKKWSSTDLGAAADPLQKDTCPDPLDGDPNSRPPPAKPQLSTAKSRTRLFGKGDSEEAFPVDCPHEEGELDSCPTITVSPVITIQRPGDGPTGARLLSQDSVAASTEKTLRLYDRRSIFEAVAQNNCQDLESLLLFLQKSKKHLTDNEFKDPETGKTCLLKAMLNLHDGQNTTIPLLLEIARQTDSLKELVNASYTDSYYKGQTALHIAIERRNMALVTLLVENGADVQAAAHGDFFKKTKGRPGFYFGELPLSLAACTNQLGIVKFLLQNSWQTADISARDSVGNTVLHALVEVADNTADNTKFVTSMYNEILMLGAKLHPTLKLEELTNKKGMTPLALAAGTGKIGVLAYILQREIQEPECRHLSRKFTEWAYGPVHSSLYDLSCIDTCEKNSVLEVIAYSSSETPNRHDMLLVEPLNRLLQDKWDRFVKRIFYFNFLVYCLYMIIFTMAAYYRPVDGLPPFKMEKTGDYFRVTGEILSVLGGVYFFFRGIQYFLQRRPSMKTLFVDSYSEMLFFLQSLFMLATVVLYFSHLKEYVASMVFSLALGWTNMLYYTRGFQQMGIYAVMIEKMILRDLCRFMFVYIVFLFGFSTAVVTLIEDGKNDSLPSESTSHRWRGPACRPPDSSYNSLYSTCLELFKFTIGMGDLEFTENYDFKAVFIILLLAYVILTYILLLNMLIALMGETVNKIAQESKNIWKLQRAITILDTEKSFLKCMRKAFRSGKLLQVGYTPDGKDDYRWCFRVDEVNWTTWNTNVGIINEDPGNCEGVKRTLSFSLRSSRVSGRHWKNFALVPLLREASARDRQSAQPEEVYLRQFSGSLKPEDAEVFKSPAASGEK
VR1/TRPV1 receptor, sequence (Q8NER1 whole entry): as above

For the molecule `Cc1cccc(N2CCN(c3nc(C(F)(F)F)ccc3CNC(=O)C(C)c3ccc(NS(C)(=O)=O)c(F)c3)CC2)c1` (stereo not drawn) [Example 220, 2-(3-fluoro-4-methylsulfonamido-phenyl)-N-[2-(4-m-tolyl-piperazin-1-yl)-6-trifluoromethyl-pyridin-3-ylmethyl]-propionamide], the Ki (in general, the dissociation constant of the complex between target and ligand, obtained from inhibition or displacement) on vanilloid receptor (VR1) worked out at 3.4 nM; in experiment [1] (read-out: Ki (rat) Cap.), 2.4 nM. 39.2 nM corresponded to half-maximal inhibition on VR1/TRPV1 receptor (IC50).
For `CC(C(=O)NCc1ccc(C(F)(F)F)nc1N1CCN(c2ccc(C(F)(F)F)cc2)CC1)c1ccc(NS(C)(=O)=O)c(F)c1` (stereo not drawn) [Example 222, 2-(3-fluoro-4-methylsulfonamido-phenyl)-N-{6-trifluoromethyl-2-[4-(4-trifluoromethyl-phenyl)-piperazin-1-yl]-pyridin-3-ylmethyl}propionamide] the same measures were 3.4 nM, 2.4 nM and 39.2 nM.
For `CC(C(=O)NCc1ccc(C(F)(F)F)nc1N1CCC(OC(=O)C(C)(C)C)CC1)c1ccc(NS(C)(=O)=O)c(F)c1` (stereo not drawn) [Example 226, 2,2-dimethyl-propionic acid 3′-{[2-(3-fluoro-4-methylsulfonamido-phenyl)-propionylamino]-methyl}-6′-trifluoromethyl-3,4,5,6-tetrahydro-2H-[1,2′]bipyridinyl-4-yl ester], the Ki at vanilloid receptor (VR1) was determined as 2 nM; in experiment [1] (read-out: Ki (rat) Cap.) it was 1.5 nM. For the same molecule, 45.2 nM corresponded to half-maximal inhibition against VR1/TRPV1 receptor (IC50).
With `CC(C(=O)NCc1ccc(C(F)(F)F)nc1N1CCC(=O)CC1)c1ccc(NS(C)(=O)=O)c(F)c1` (stereo not drawn) [Example 227], the Ki at vanilloid receptor (VR1) stood at 91 nM. In addition, the Ki in experiment [1] (read-out: Ki (rat) Cap.) was found to be 348 nM. Moreover, on VR1/TRPV1 receptor (setting [2]), the inhibition (usually the share of the control response that was lost under treatment) at 1 µM is 7% and the inhibition at 10 µM worked out at 51%.
For `CCOC1CCN(c2nc(C(F)(F)F)ccc2CNC(=O)C(C)c2ccc(NS(C)(=O)=O)c(F)c2)CC1` (stereo not drawn) [Example 228, N-(4-ethoxy-6′-trifluoromethyl-3,4,5,6-tetrahydro-2H-[1,2′]bipyridinyl-3′-ylmethyl)-2-(3-fluoro-4-methylsulfonamido-phenyl)-propionamide], the Ki was determined as 1.3 nM on vanilloid receptor (VR1) and 2.5 nM in experiment [1] (read-out: Ki (rat) Cap.). Besides, the IC50 (as a rule, the concentration that inhibits the measured activity by half) on VR1/TRPV1 receptor was 612 nM.
On the same counts, the results for `CCC1CCN(c2cc(C(F)(F)F)ccc2CNC(=O)C(C)c2ccc(NS(C)(=O)=O)c(F)c2)CC1` (stereo not drawn) [Example 229, N-[2-(4-ethyl-piperidin-1-yl)-4-trifluoromethyl-benzyl]-2-(3-fluoro-4-methylsulfonamido-phenyl)-propionamide] are 0.7 nM, 0.7 nM and 17.7 nM.
For `CC(C(=O)NCc1ccc(C(F)(F)F)cc1N1CCC(C(F)(F)F)CC1)c1ccc(NS(C)(=O)=O)c(F)c1` (stereo not drawn) [Example 230, 2-(3-fluoro-4-methylsulfonamido-phenyl)-N-[4-trifluoromethyl-2-(4-trifluoromethyl-piperidin-1-yl)-benzyl]-propionamide] the same measures were 0.4 nM, 0.6 nM and 20.1 nM.
For `CC(C(=O)NCc1ccc(C(F)(F)F)cc1N1CCC(Cc2ccccc2)CC1)c1ccc(NS(C)(=O)=O)c(F)c1` (stereo not drawn) [Example 231, N-[2-(4-benzyl-piperidin-1-yl)-4-trifluoromethyl-benzyl]-2-(3-fluoro-4-methylsulfonamido-phenyl)-propionamide] the same measures were 1.4 nM, 0.8 nM and 37.6 nM.
In the case of `CC(C(=O)NCc1ccc(C(C)(C)C)nc1OC1CCCCC1)c1ccc(NS(C)(=O)=O)c(F)c1` (stereo not drawn) [Example 233, N-(6-tert-butyl-2-cyclohexyloxy-pyridin-3-ylmethyl)-2-(3-fluoro-4-methylsulfonamido-phenyl)-propionamide], the Ki on vanilloid receptor (VR1) stood at 2.5 nM; in experiment [1] (read-out: Ki (rat) Cap.), 1.4 nM. Further, at VR1/TRPV1 receptor (setting [2]), the inhibition at 1 µM is 50%. For the same molecule, on VR1/TRPV1 receptor (setting [2]), the inhibition at 10 µM was determined as 63%.
As to `CCCCOc1nc(C(C)(C)C)ccc1CNC(=O)C(C)c1ccc(NS(C)(=O)=O)c(F)c1` (stereo not drawn) [Example 235, N-(2-butoxy-6-tert-butyl-pyridin-3-ylmethyl)-2-(3-fluoro-4-methylsulfonamido-phenyl)-propionamide], the values for the Ki (at vanilloid receptor (VR1); in experiment [1] (read-out: Ki (rat) Cap.)) were 0.9 nM and 0.6 nM, respectively. At VR1/TRPV1 receptor, this molecule came in with an IC50 of 55 nM.
Take `CCCCCCOc1nc(C(C)(C)C)ccc1CNC(=O)C(C)c1ccc(NS(C)(=O)=O)c(F)c1` (stereo not drawn) [Example 236, N-(6-tert-butyl-2-hexyloxy-pyridin-3-ylmethyl)-2-(3-fluoro-4-methylsulfonamido-phenyl)-propionamide]: on vanilloid receptor (VR1), the Ki was determined as 2.7 nM. In experiment [1] (read-out: Ki (rat) Cap.), the Ki was determined as 1.4 nM. In addition, on VR1/TRPV1 receptor (setting [2]), the inhibition at 1 µM worked out at 76% and the inhibition at 10 µM was determined as 69%.
As for `CC(C(=O)NCc1ccc(C(C)(C)C)nc1OCc1ccccc1)c1ccc(NS(C)(=O)=O)c(F)c1` (stereo not drawn) [Example 237, N-(2-benzyloxy-6-tert-butyl-pyridin-3-ylmethyl)-2-(3-fluoro-4-methylsulfonamido-phenyl)-propionamide], the Ki on vanilloid receptor (VR1) came out at 4.4 nM; in experiment [1] (read-out: Ki (rat) Cap.), 2 nM. Further, the inhibition at 1 µM on VR1/TRPV1 receptor (setting [2]) stood at 70%.
For `CC(C(=O)NCc1ccc(C(F)(F)F)cc1OC1CCCCC1)c1ccc(NS(C)(=O)=O)c(F)c1` (stereo not drawn) [Example 238, N-(2-cyclohexyloxy-4-trifluoromethyl-benzyl)-2-(3-fluoro-4-methylsulfonamido-phenyl)-propionamide], the values for the Ki (on vanilloid receptor (VR1); in experiment [1] (read-out: Ki (rat) Cap.)) were 0.7 nM and 0.6 nM, respectively. Moreover, the inhibition at 0.1 µM at VR1/TRPV1 receptor (setting [2]) was determined as 39%. Further, the inhibition at 1 µM on VR1/TRPV1 receptor (setting [2]) worked out at 55%.
`CC(C(=O)NCc1ccc(C(C)(C)C)nc1N1CCCC1)c1ccc(NS(C)(=O)=O)c(F)c1` (stereo not drawn) [Example 240, N-(6-tert-butyl-2-pyrrolidin-1-yl-pyridin-3-ylmethyl)-2-(3-fluoro-4-methansulfonylamino-phenyl)-propionamide]: the Ki on vanilloid receptor (VR1) amounted to 1.2 nM. In addition, the Ki in experiment [1] (read-out: Ki (rat) Cap.) amounted to 5.3 nM. In addition, on VR1/TRPV1 receptor (setting [2]), the inhibition at 0.1 µM amounted to 12% and the inhibition at 1 µM is 43%.
On the same counts, the results for `CC1CCN(c2nc(C(C)(C)C)ccc2CNC(=O)C(C)c2ccc(NS(C)(=O)=O)c(F)c2)CC1` (stereo not drawn) [Example 241, N-(6′-tert-butyl-4-methyl-3,4,5,6-tetrahydro-2H-[1,2′]bipyridinyl-3′-ylmethyl)-2-(3-fluoro-4-methylsulfonamido-phenyl)-propionamide] are 1.9 nM, 0.5 nM, 34% and 79%.
Regarding `CCc1ccc(COc2nc(C(F)(F)F)ccc2CNC(=O)C(C)c2ccc(NS(C)(=O)=O)c(F)c2)cc1` (stereo not drawn) [Example 242, N-[2-(4-ethyl-benzyloxy)-6-trifluoromethyl-pyridin-3-ylmethyl]-2-(3-fluoro-4-methylsulfonamido-phenyl)-propionamide], the Ki on vanilloid receptor (VR1) is 3.7 nM; in experiment [1] (Ki (rat) Cap.), 1.2 nM. The molecule also yielded an IC50 against VR1/TRPV1 receptor of 165 nM.
Turning to `CCCCc1ccc(COc2nc(C(F)(F)F)ccc2CNC(=O)C(C)c2ccc(NS(C)(=O)=O)c(F)c2)cc1` (stereo not drawn) [Example 243, N-[2-(4-butyl-benzyloxy)-6-trifluoromethyl-pyridin-3-ylmethyl]-2-(3-fluoro-4-methylsulfonamido-phenyl)-propionamide], the Ki at vanilloid receptor (VR1) amounted to 16 nM; in experiment [1] (read-out: Ki (rat) Cap.), 5.1 nM. The molecule also came in with an IC50 against VR1/TRPV1 receptor of 337 nM.
As for `CC(C(=O)NCc1ccc(C(F)(F)F)nc1OCc1ccc(C(C)(C)C)cc1)c1ccc(NS(C)(=O)=O)c(F)c1` (stereo not drawn) [Example 244, N-[2-(4-tert-butyl-benzyloxy)-6-trifluoromethyl-pyridin-3-ylmethyl]-2-(3-fluoro-4-methylsulfonamido-phenyl)-propionamide], the Ki came to 2.1 nM at vanilloid receptor (VR1) and 1.1 nM in experiment [1] (Ki (rat) Cap.). This molecule showed an IC50 on VR1/TRPV1 receptor of 182 nM.
Consider `CC(C(=O)NCc1ccc(C(F)(F)F)nc1OC1Cc2ccccc2C1)c1ccc(NS(C)(=O)=O)c(F)c1` (stereo not drawn) [Example 245, 2-(3-fluoro-4-methylsulfonamido-phenyl)-N-[2-(indan-2-yloxy)-6-trifluoromethyl-pyridin-3-ylmethyl]-propionamide], for which the Ki on vanilloid receptor (VR1) was determined as 2.7 nM. The molecule further displayed a Ki in experiment [1] (Ki (rat) Cap.) of 1.7 nM. Moreover, on VR1/TRPV1 receptor (setting [2]), the inhibition at 0.1 µM was 21% and the inhibition at 1 µM came to 74%.
As for `Cc1ccc(N2CCN(c3cc(C(F)(F)F)ccc3CNC(=O)C(C)c3ccc(NS(C)(=O)=O)c(F)c3)CC2)cc1` (stereo not drawn) [Example 246, 2-(3-fluoro-4-methylsulfonamido-phenyl)-N-[2-(4-p-tolyl-piperazin-1-yl)-4-trifluoromethyl-benzyl]-propionamide], the Ki at vanilloid receptor (VR1) turned out to be 0.7 nM; in experiment [1] (read-out: Ki (rat) Cap.) it was 0.5 nM. On VR1/TRPV1 receptor, this molecule returned an IC50 of 87 nM.
Take `Cc1cccc(N2CCN(c3cc(C(F)(F)F)ccc3CNC(=O)C(C)c3ccc(NS(C)(=O)=O)c(F)c3)CC2)c1` (stereo not drawn) [Example 247, 2-(3-fluoro-4-methylsulfonamido-phenyl)-N-[2-(4-m-tolyl-piperazin-1-yl)-4-trifluoromethyl-benzyl]-propionamide]: the Ki at vanilloid receptor (VR1) came to 1.8 nM. For the same molecule, in experiment [1] (read-out: Ki (rat) Cap.), the Ki worked out at 0.5 nM. Moreover, on VR1/TRPV1 receptor (setting [2]), the inhibition at 0.1 µM was determined as 36% and the inhibition at 1 µM was 69%.
For `CC(C(=O)NCc1ccc(C(F)(F)F)cc1N1CCN(c2ccc(C(F)(F)F)cc2)CC1)c1ccc(NS(C)(=O)=O)c(F)c1` (stereo not drawn) [Example 248, 2-(3-fluoro-4-methylsulfonamido-phenyl)-N-{4-trifluoromethyl-2-[4-(4-trifluoromethyl-phenyl)-piperazin-1-yl]-benzyl}-propionamide], the Ki at vanilloid receptor (VR1) was found to be 3.9 nM; in experiment [1] (read-out: Ki (rat) Cap.), 0.9 nM. The inhibition at 10 µM at VR1/TRPV1 receptor (setting [2]) came to 66%. In addition, at VR1/TRPV1 receptor (@ 25 μM, read-out: inhibition in percent, IC50 (human) after pH stimulus), the inhibition at 25 µM amounted to 74%.
